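All cell lines were grown in 96-well plates and treated with compound for 48 hours. TGI is the concentration that stops growth completely.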
Tests used:
Test in all cases: inhibition of tumour cell growth, NCI panel, 48 h
786-0 renal = test system: 786-0 renal
A549 NSCLC = test system: A549 NSCLC
ACHN renal = test system: ACHN renal
BT-549 breast = test system: BT-549 breast
CAKI-1 renal = test system: CAKI-1 renal
COLO 205 colon = test system: COLO 205 colon
DU-145 prostate = test system: DU-145 prostate
EKVX NSCLC = test system: EKVX NSCLC
HCC-2998 colon = test system: HCC-2998 colon
HCT-116 colon = test system: HCT-116 colon
HCT-15 colon = test system: HCT-15 colon
HOP-62 NSCLC = test system: HOP-62 NSCLC
HS 578T breast = test system: HS 578T breast
IGROV1 ovarian = test system: IGROV1 ovarian
KM12 colon = test system: KM12 colon
LOX IMVI melanoma = test system: LOX IMVI melanoma
M14 melanoma = test system: M14 melanoma
MALME-3M melanoma = test system: MALME-3M melanoma
MCF7 breast = test system: MCF7 breast
MDA-MB-231 breast = test system: MDA-MB-231 breast
MDA-N = test system: MDA-N
NCI-H226 lung = test system: NCI-H226 lung
NCI-H23 lung = test system: NCI-H23 lung
NCI-H460 lung = test system: NCI-H460 lung
NCI-H522 lung = test system: NCI-H522 lung
NCI/ADR-RES ovarian = test system: NCI/ADR-RES ovarian
OVCAR-3 ovarian = test system: OVCAR-3 ovarian
OVCAR-5 ovarian = test system: OVCAR-5 ovarian
OVCAR-8 ovarian = test system: OVCAR-8 ovarian
PC-3 prostate = test system: PC-3 prostate
RXF 393 renal = test system: RXF 393 renal
SF-268 CNS = test system: SF-268 CNS
SF-295 CNS = test system: SF-295 CNS
SK-MEL-5 melanoma = test system: SK-MEL-5 melanoma
SK-OV-3 ovarian = test system: SK-OV-3 ovarian
SNB-19 CNS = test system: SNB-19 CNS
SNB-75 CNS = test system: SNB-75 CNS
TK-10 renal = test system: TK-10 renal
UACC-257 melanoma = test system: UACC-257 melanoma
UACC-62 melanoma = test system: UACC-62 melanoma
UO-31 renal = test system: UO-31 renal

Measured: TGI

CN(C)c1ccc(C=NCC2CCCN3CCCCC23)cc1 (stereo unspecified)
> 100 µM: all assays above

From PubChem BioAssay (NCI)
